Results published in patent US20250034264A1, “REGULATING T CELL IMMUNE RESPONSE THROUGH IGF-I RECEPTOR (IGF-1R)” (The Regents of the University of Michigan, priority 2021, published 2025).

Tests used:
Format in all cases: cell-based, human
[1] = tested on: fibrocyte/adherent T cell co-cultures; test: IL-17A and INFγ released into culture medium (ELISA); details: 50 μg/mL, day 9
Description: ELISAs Media were collected from cultures treated as indicated and analyzed for concentrations of […] and IL-17A using specific ELISA kits (R&D systems) according to the manufacture's protocol.

GD-OF = test: Slit2 and ROBO1 mRNA and Slit2 protein; details: 50 μg/ml, 3 d
Experimental: FIGS. 14A-14B are graphs showing teprotumumab induces Slit2 and roundabout 1 (ROBO1) mRNA and Slit2 protein in GD-OF. Cultures were treated with either isotype control IgG or teprotumumab (50 μg/ml) for 3 d. Culture media were collected and subjected to Slit2-specific ELISA (FIG. 14A). Levels of Slit2 were normalized to respective cell layer protein content. Cellular RNA was harvested from rinsed cell layers and mRNA reverse transcribed, and cDNA subjected to quantitative real-time PCR for Slit2 and ROBO1 (FIG. 14B). Values were normalized to their respective GAPDH levels. * *, p<0.01, * **, p<0.001.
(§1) Real-time PCR Confluent fibrocyte and GD-OF cultures were incubated with bTSH (5 mIU/mL), teprotumumab (50 μg/mL) or linsitinib (1 μM) for the time intervals indicated, washed with PBS and RNA was extracted with the Aurum Total RNA Mini Kit (cat. #732-6820, Bio-Rad, Hercules, CA). Cellular RNA (2 μg) was reverse transcribed using QuantiTect Reverse Transcription kit (cat. #205314, Qiagen (Germantown, MD) and real-time PCR was performed using an Applied Biosystems instrument with QuantiTect SYBR Green PCR kit (cat. no. 204143; Qiagen, Frederick, MD). Primer sequences were as follows.

fibrocytes [2] = test: IL-10, icIL-1RA, sIL-1RA expression (PCR, ELISA)
Experimental: FIGS. 11A-11F are graphs showing teprotumumab attenuates bTSH induced IL-10 while enhancing icIL-1RA and sIL-1RA expression in fibrocytes and GD-OF. Fibrocyte cultures were treated with teprotumumab (50 μg/ml), rhSlit2 (50 ng/ml) or human Isotype IgG for 7-9 d, with bTSH (5 mIU/mL) for final 6 h. RNA was extracted and reverse transcribed. Isolated cDNA was subjected to quantitative real-time PCR for IL-10 (FIGS. 11A and 11B), icIL-1RA (FIGS. 11C and 11D). Media and cellular proteins were collected and subjected to specific ELISAs for icIL-1RA and sIL-1RA (FIGS. 11E, 11F, 11G, and 11H). PCR values were normalized to their respective GAPDH levels. icIL-1RA and sIL-1RA protein levels were normalized to cellular protein levels. Data are expressed as the mean±SD of three independent determinations. Experiments were repeated three times. **, p<0.01; ***. P<0.001.
IL-12, IL-23, IL-10, HA and BAFF ELISAs. Confluent cultures were treated with nothing or teprotumumab (50 μg/mL) for 5 d, without or with bTSH (5 mU/mL) for the intervals indicated or 72 h. Media and rinsed cell layers were homogenized in 0.1M NaCl and assayed for HA content using an ELISA kit (K-1200) from Echelon Biosciences Inc. (Salt Lake City, UT) according to manufacturer's instructions. A BAFF specific ELISA, purchased from R & D systems, was used in accordance with the manufacturer's instructions.
as §1

fibrocytes [3] = test: IL-23p19 and IL-12p35 mRNA expression, real-time PCR; details: teprotumumab 50 μg/ml or linsitinib 1 μM, 7-9 d
Experimental: FIGS. 10A-10F are graphs showing the divergent effect of teprotumumab on bTSH induced IL-23p19 and IL-12p35 expression on fibrocytes and GD-OF. Rinsed fibrocyte and GD-OF monolayers were incubated with or without 50 μg/ml teprotumumab (FIGS. 10A and 10B) or 1 μM linsitinib (FIGS. 10C and 10D) and human Isotype IgG for 7-9 d, and bTSH (5 mIU/mL) was added for 6 h. Harvested RNA was reverse transcribed and isolated cDNA was subjected to quantitative real-time PCR for IL-23p19 and IL-12p35 mRNA levels. Values were normalized to their respective GAPDH levels and are expressed as the mean±SD of three independent determinations. Experiments were repeated three times. FIGS. 10E and 10F are graphs showing the levels of IL-23 protein when rinsed fibrocyte and GD-OF monolayers were incubated with or without 50 μg/ml teprotumumab. **, p<0.01; ***. P<0.001.
as §1

[4] = tested on: fibrocyte-adherent CD4+ T cells; test: IL-17A and INFγ in fibrocyte-adherent CD4+ T cells (flow cytometry)
Experimental: Invariably, a small population of tightly adherent T cells were found in the fibrocyte cultures, consistent with the previous findings. Culture viability was routinely verified to be >90%. CD4^+ T cells were enriched using the CD4 isolation cocktail (Cat #0.130-096-533, Miltenyi Biotec, San Diego, CA) followed by negative selection using a magnetic column (Cat #0.130-042-401) according to manufacturer's protocol. Fibrocytes and isolated T cells were cultured and remained untreated or were incubated with human IgG isotype control (5 μg/ml) or teprotumumab (50 μg/mL) for 7 to 9 days. Single cell suspensions were stained with anti-human CD4, CD3, CD34, MHC-2, CD80, CD86, and PD-L1 (BD Biosciences) for 30 min, rinsed and fixed with CytoPerm/CytoFix (BD). They were then stained with anti-human INFγ and IL-17A for 20 min, rinsed, and subjected to the flow cytometry analysis. Gated CD34^+CXCR4^+ fibrocytes and CD4^+CD3^+ T cells were analyzed using quadrant settings based on negative isotype staining.
In vitro studies of CD34^+ fibrocytes and T cells PBMC and GD-OF monolayers were treated in vitro with human IgG isotype control (5 μg/ml), teprotumumab (50 μg/mL), H7 (5 μg/mL), linsitinib (1 μM), bTSH (5 mIU/mL), M22 (1 μg/mL), or IGF-1 (10 nM) for the intervals indicted in the figure legends in a 37° C., 5% CO2, humidified incubator until confluent. Brefeldin A (0.66 μl/ml), (Golgi Stop™, BD Biosciences), phorbol 12-myristate 13-acetate (PMA) (50 ng/ml) and ionomycin (1 μg/mL) were added for 5 h. Cells were rinsed with flow cytometry buffer (1×PBS, 0.5% BSA, 0.1% sodium azide) and stained with the relevant monoclonal antibodies.

[5] = teprotumumab 50 μg/ml or rhSlit2 50 ng/ml, 7-9 d

## teprotumumab
[1]
  reduction of IL-17A released into the culture media: 52%
  reduction of INFγ released into the culture media: 54%
GD-OF; ELISA
  Slit2 protein synthesis: increased
GD-OF; three strains of GD-OF
  ROBO1 mRNA expression: induced
  Slit2 mRNA expression: induced
Fibrocytes [2]; ELISA, fibrocytes
  effects on icIL-1RA protein levels: minimal
Fibrocytes [2]; [5]
  IL-10 mRNA, basal and bTSH-provoked expression: downregulated
  basal and bTSH-dependent icIL-1RA and sIL-1RA mRNA levels: upregulated
Fibrocytes [3]
  IL-12p35 expression, basal and induction by bTSH: enhances
  IL-23p19 expression, basal and induction by bTSH: inhibited
[4]; 50 μg/mL, 9 d, control MFI 64.01±10.15
  INFγ MFI: 26.80±5.61
[4]; 50 μg/mL, 9 d, control isotype MFI 76.03±14.17
  IL-17A MFI: 65.17±5.61
[4]; cultures from both donor cohorts
  abundance of adherent CD3+CD4+ T cells: substantially reduced
